One test has as its system Bacillus badius. Nature of the test: MIC of glyphosate and neutralisation by CLK-GA, micro dilution method in RCM Bouillon. The class given is cell-based. The source says:
(§1) The pathogen Enterococcus faecalis was isolated from the microalgae Chlorella vulgaris to citrate-acid-tween-carbonate (CATC) agar. Suspicious colonies (gram positive, catalase negative cocci) were inoculated to blood agar plates (oxoid) and differentiated by using biochemical tests. The species differentiation was confirmed by means of MALDI-TOF-MS. The isolation of the pathogen Bacillus badius was done from Chlorella vulgaris to blood agar (oxoid). The species differentiation was done based on biochemical parameters. The confirmation was done by means of MALDI-TOF-MS.
(§2) Commercially available glyphosate preparation Roundup UltraMax® (450 g/l glyphosate as isopropylamine salt on SL formulation) was used for the test.
(§3) The value for the minimal inhibitory concentration of glyphosate for the indicator germs (MIC) was determined by using micro dilution method (MID) in accordance with the current specifications of the National Committee for Clinical Laboratory Standards (NCCLS). It was carried out for E. faecalis and B. Badius in RCM Bouillon (SIFIN).
(§4) The determination of the neutralising effect of humic acid product CLK-GA for glyphosate was done through glyphosate MIC. The MIC determinations for glyphosate and glyphosate-CLK-GA mixture was carried out in RCM Bouillon as described above. CLK-GA was used in the concentrations of 1.0, 0.5 and 0.25 mg/ml. The neutralisation of glyphosate was carried out in RCM Bouillon in the concentrations of 300 μg/ml, 600 μg/ml, 1200 μg/ml and 2400 μg/ml mixed with 1 mg/ml, 0.5 mg/ml and 0.25 mg/ml CLK-GA and kept overnight at 37° C. After centrifugation (3000 U/min) and filtration of the individual formulations through a centrifugal filter (3Kda, VWR, Mexico)m […] KbE E. faecalis and B. Badius was given to these. After growing it overnight at 37° C., the contents of each tube was spread on CATC agar or blood agar and was evaluated after 48 h.

The subject of a further test is Enterococcus faecalis. Described as above. The class given is cell-based.
Description: as §1, §2, §3, §4

[1] abbreviates: 10^4 KbE/ml suspension, end concentration 300 μg/ml glyphosate and/or 1 mg/ml CLK-GA.

Molecules are shown by their SMILES.

Data on one compound can be found in US20150216871A1, “Use of a Humic Acid Preparation for Treating Warm-Blooded Animals” (WH […] WEINBÖHLA GMBH, priority 2012, published 2015).

Regarding `O=C(O)CNCP(=O)(O)O` [Glyphosate, glyphosate], the “growth / elimination of germs in suspension” value with Bacillus badius (setting [1]) and in the test on Enterococcus faecalis (setting [1]) was “growth was absent” throughout. Also, the MIC (in general, the lowest concentration found to suppress growth) worked out at 150 µg/mL with Bacillus badius (Pseudobacillus badius, read-out: MIC values Glyphosate) and 200 µg/mL in the test on Enterococcus faecalis (Enterococcus faecalis, read-out: MIC values Glyphosate).
